Experimental data published in patent EP3959993B1, “METHOD FOR SOLVENT FREE PRODUCTION OF AROMA CONCENTRATES” (Symrise AG, priority 2020, dated 2022).

Key:
[1] = Influence of the amount of NaCl on the distribution between oil phase and water phase (Example 5); assay type: physicochemical
[2] = Second oil phase obtained by adding NaCl to the water phase (Example 4); assay type: physicochemical; settings: after separating oil phases I and II
Experimental: Cross linked polystyrene was used as adsorbent material. The volume flux for loading the adsorbent was 300 ml/min.
The adsorbent was heated to 150 °C, the temperature of the applied water steam was 160 °C.
The water steam flux was 10 g/min and was applied for 100 min.
The oil and water phases were separated.
A second oil phase was separated and was collected.

| Distribution in [%] between oil phase and water phase after condensation: Oil phase ([1]; NaCl 0%) [%] | Distribution in [%] between oil phase and water phase after condensation: Water phase ([1]; NaCl 0%) [%] | Distribution in [%] between oil phase and water phase after condensation: Oil phase ([1]; NaCl 27.8 %) [%] | Distribution in [%] between oil phase and water phase after condensation: Water phase ([1]; NaCl 27.8 %) [%] | Distribution in [%] between oil phase and water phase after condensation: Oil phase ([1]; NaCl 41.67%) [%] | Distribution in [%] between oil phase and water phase after condensation: Water phase ([1]; NaCl 41.67%) [%] | Distribution in [%] between oil phase and water phase after condensation: Oil phase ([1]; NaCl 55.56 %) [%] | Distribution in [%] between oil phase and water phase after condensation: Water phase ([1]; NaCl 55.56 %) [%] | Distribution in [%] between oil phase and water phase after condensation: Oil phase ([1]; NaCl 69.44 %) [%] | Distribution in [%] between oil phase and water phase after condensation: Water phase ([1]; NaCl 69.44 %) [%] | Distribution in [%] between oil phase and water phase after condensation: Oil phase ([1]; NaCl 83.33 %) [%] | Distribution in [%] between oil phase and water phase after condensation: Water phase ([1]; NaCl 83.33 %) [%] | Loss in the water phase [2] | SMILES |
| --- | --- | --- | --- | --- | --- | --- | --- | --- | --- | --- | --- | --- | --- |
| 100 | 0 | 100 | 0 | 100 | 0 | 100 | 0 | 100 | 0 | 100 | 0 | 0,0% | CC/C=C\CCOC(C)=O [cis-3-hexenyl acetate] |
| 10.4 | 89.6 | 20.8 | 79.2 | 30.3 | 69.7 | 33.2 | 66.8 | 38.9 | 61.1 | 45.2 | 54.8 | 54,8% | CCOC(C)=O [ethyl acetate] |

The remaining lines, values behind:

| SMILES | Distribution in [%] between oil phase and water phase after condensation: Oil phase ([1]; NaCl 0%) [%] | Distribution in [%] between oil phase and water phase after condensation: Water phase ([1]; NaCl 0%) [%] | Distribution in [%] between oil phase and water phase after condensation: Oil phase ([1]; NaCl 27.8 %) [%] | Distribution in [%] between oil phase and water phase after condensation: Water phase ([1]; NaCl 27.8 %) [%] | Distribution in [%] between oil phase and water phase after condensation: Oil phase ([1]; NaCl 41.67%) [%] | Distribution in [%] between oil phase and water phase after condensation: Water phase ([1]; NaCl 41.67%) [%] | Distribution in [%] between oil phase and water phase after condensation: Oil phase ([1]; NaCl 55.56 %) [%] | Distribution in [%] between oil phase and water phase after condensation: Water phase ([1]; NaCl 55.56 %) [%] | Distribution in [%] between oil phase and water phase after condensation: Oil phase ([1]; NaCl 69.44 %) [%] | Distribution in [%] between oil phase and water phase after condensation: Water phase ([1]; NaCl 69.44 %) [%] | Distribution in [%] between oil phase and water phase after condensation: Oil phase ([1]; NaCl 83.33 %) [%] | Distribution in [%] between oil phase and water phase after condensation: Water phase ([1]; NaCl 83.33 %) [%] | Loss in the water phase [2] |
| --- | --- | --- | --- | --- | --- | --- | --- | --- | --- | --- | --- | --- | --- |
| CCCCCC(=O)O [caproic acid] | 43.5 | 56.5 | 84.9 | 15.1 | 91.5 | 8.5 | 94.9 | 5.1 | 97 | 3 | 97.9 | 2.1 | 2,1% |
| CC/C=C\CCO [cis-3-hexenol] | 30.6 | 69.4 | 62.8 | 37.2 | 73.3 | 26.7 | 80.5 | 19.5 | 85.6 | 14.4 | 89.2 | 10.8 | 10,8% |
| CCOC(=O)C(C)CC (centres unmarked) [ethyl 2-methyl butyrate] | 66.1 | 33.9 | 95 | 5 | 97.9 | 2.1 | 98.8 | 1.2 | 99.7 | 0.3 | 100 | 0 | 0,0% |
